# Measurements published in the kinase profiling compilation of Christmann-Franck et al. (2016).
# Columns and labels:
# Experiment in all cases: radiometric filter-binding kinase assay
# MAPKAPK3 (human) = MAPKAPK3 (human) (UniProt Q16644)
# MKNK2 (human) = MKNK2 (human) (UniProt Q9HBH9)
# NEK2 (human) = NEK2 (human) (UniProt P51955)
# NEK6 (human) = NEK6 (human) (UniProt Q9HC98)
# PAK7 (human) = PAK7 (human) (UniProt Q9P286)
# PIM2 (human) = PIM2 (human) (UniProt Q9P1W9)
# PLK1 (human) = PLK1 (human) (UniProt P53350)
# PRKAA1 or PRKAA2 (rat) = conditions: accession and sequence are those of the human protein
# PRKACA (human) = PRKACA (human) (UniProt P17612)
# RIPK2 (human) = RIPK2 (human) (UniProt O43353)
# RPS6KA1 KD1 KD2 (human) = RPS6KA1 KD1 KD2 (human) (UniProt Q15418)
# RPS6KA3 KD1 KD2 (human) = RPS6KA3 KD1 KD2 (human) (UniProt P51812)
# RPS6KA5 KD1 KD2 (human) = RPS6KA5 KD1 KD2 (human) (UniProt O75582)
# [1] = tested on: RPS6KB1 (human), P23443 [T412E]
# SRC (human) = SRC (human) (UniProt P12931)
# SYK (human) = SYK (human) (UniProt P43405)
# TTK (human) = TTK (human) (UniProt P33981)
# Sequence of MAPKAPK3 (human) (Q16644 whole entry, looked up): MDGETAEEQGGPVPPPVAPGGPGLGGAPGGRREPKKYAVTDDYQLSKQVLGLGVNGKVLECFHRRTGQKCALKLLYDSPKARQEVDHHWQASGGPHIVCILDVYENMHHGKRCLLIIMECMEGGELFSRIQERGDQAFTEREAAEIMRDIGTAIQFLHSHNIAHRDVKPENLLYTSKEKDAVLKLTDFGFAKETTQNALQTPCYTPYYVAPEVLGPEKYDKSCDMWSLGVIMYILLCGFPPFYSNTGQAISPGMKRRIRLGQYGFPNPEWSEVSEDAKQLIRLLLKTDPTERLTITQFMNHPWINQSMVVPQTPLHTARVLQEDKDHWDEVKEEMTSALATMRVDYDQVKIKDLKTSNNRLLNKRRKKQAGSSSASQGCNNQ
# Sequence of RPS6KA5 KD1 KD2 (human) (O75582 whole entry, looked up): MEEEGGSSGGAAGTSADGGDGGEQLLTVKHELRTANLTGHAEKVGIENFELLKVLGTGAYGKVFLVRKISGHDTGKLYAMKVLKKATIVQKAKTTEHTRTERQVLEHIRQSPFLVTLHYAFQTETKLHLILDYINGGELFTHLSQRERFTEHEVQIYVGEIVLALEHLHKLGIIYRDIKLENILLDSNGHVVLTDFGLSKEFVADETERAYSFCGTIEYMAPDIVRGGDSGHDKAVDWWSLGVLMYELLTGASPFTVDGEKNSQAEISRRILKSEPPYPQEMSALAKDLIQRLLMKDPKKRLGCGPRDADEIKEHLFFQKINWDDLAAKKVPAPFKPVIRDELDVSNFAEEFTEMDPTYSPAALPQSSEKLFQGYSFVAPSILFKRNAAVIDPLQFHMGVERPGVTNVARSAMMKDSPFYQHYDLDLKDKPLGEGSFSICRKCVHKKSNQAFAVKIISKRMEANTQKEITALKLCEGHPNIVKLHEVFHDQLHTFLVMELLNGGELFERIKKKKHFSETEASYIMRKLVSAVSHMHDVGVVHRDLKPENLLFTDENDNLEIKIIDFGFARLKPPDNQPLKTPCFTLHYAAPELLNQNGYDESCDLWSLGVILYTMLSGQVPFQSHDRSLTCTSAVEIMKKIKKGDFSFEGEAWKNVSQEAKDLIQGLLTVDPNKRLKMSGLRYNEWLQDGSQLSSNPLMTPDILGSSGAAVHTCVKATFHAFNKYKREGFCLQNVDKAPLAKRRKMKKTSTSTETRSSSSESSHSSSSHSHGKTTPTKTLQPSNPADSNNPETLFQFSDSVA
# Sequence of SRC (human) (P12931 whole entry, looked up): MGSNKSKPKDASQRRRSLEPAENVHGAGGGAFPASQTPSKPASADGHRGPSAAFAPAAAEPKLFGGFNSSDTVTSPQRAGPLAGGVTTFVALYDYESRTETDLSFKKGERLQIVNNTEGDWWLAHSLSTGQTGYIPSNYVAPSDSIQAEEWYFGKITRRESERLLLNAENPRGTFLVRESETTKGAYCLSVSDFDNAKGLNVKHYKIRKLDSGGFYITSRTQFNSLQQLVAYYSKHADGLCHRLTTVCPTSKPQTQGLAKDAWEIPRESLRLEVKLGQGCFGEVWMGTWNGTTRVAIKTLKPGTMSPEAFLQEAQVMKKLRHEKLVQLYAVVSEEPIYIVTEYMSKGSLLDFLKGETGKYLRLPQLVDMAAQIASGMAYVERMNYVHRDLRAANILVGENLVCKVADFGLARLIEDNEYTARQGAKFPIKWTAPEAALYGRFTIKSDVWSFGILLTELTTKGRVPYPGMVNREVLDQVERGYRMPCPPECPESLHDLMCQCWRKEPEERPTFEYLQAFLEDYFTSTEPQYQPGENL
# Sequence of RPS6KB1 (human), P23443 [T412E] (P23443 whole entry T412E, looked up): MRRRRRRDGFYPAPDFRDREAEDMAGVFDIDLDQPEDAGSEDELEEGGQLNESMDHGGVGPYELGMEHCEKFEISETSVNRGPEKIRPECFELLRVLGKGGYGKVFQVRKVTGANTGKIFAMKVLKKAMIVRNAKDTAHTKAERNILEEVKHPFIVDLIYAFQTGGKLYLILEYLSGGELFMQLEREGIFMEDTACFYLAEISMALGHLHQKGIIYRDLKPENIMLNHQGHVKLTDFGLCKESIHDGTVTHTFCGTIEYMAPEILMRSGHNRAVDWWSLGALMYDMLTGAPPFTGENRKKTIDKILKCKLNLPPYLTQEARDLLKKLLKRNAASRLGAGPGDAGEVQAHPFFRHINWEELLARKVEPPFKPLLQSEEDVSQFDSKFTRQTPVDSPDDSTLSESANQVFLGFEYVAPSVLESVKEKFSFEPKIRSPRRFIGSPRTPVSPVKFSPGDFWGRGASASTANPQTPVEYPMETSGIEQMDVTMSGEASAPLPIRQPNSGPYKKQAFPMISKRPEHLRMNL
# Sequence of PIM2 (human) (Q9P1W9 whole entry, looked up): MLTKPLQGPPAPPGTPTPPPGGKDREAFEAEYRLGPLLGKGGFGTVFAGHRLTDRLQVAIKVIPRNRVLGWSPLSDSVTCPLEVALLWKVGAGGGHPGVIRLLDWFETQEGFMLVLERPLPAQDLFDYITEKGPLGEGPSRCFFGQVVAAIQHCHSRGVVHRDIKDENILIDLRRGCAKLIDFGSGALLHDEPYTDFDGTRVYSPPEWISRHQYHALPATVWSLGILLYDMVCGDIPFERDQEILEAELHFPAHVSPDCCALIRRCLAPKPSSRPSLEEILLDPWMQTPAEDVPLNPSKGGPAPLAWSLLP
# Sequence of PLK1 (human) (P53350 whole entry, looked up): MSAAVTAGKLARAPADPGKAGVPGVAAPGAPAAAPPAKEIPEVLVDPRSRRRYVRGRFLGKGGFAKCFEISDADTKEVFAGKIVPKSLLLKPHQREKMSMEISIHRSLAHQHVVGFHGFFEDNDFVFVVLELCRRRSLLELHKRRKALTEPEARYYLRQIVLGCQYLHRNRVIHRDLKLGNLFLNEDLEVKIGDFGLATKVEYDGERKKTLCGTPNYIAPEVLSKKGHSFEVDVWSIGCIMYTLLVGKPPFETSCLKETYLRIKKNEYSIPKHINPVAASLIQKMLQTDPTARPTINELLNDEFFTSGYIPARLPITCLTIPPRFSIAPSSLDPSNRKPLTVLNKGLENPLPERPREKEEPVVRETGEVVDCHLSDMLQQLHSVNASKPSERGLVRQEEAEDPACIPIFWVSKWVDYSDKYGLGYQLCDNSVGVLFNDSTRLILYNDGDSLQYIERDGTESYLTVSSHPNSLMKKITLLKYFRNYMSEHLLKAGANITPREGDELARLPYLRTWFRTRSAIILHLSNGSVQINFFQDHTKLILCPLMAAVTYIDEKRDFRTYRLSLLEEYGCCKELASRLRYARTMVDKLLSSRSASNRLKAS
# Sequence of PAK7 (human) (Q9P286 whole entry, looked up): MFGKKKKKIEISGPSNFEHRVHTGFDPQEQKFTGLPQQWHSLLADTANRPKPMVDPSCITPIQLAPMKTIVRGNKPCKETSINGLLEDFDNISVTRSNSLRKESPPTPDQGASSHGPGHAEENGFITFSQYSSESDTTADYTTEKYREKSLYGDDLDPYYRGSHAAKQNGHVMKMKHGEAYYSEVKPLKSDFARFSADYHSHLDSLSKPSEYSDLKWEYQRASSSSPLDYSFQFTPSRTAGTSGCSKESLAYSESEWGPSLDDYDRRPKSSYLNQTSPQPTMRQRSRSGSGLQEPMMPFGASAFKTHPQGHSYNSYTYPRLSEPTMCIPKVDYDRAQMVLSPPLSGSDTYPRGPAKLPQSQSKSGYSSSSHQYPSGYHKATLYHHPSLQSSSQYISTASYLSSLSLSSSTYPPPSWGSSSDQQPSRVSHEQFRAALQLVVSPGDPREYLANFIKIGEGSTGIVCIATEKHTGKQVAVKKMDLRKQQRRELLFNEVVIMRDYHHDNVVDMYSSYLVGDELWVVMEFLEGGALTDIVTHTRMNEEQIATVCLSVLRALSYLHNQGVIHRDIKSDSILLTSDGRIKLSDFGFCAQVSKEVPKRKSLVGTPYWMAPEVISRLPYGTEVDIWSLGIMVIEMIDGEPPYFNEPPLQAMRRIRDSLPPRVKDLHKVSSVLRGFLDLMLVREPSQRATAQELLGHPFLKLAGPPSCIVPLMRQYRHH
# Sequence of NEK2 (human) (P51955 whole entry, looked up): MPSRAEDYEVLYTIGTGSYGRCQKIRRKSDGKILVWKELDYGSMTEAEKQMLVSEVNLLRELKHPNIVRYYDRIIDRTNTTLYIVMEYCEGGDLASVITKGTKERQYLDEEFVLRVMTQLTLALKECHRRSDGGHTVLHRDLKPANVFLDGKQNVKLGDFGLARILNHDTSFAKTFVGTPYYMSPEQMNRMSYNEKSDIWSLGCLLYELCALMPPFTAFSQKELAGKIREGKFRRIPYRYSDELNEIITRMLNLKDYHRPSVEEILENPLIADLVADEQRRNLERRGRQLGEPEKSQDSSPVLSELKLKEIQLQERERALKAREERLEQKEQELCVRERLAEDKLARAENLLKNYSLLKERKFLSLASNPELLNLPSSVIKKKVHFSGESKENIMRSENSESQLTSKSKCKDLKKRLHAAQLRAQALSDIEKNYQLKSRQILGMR
# Sequence of NEK6 (human) (Q9HC98 whole entry, looked up): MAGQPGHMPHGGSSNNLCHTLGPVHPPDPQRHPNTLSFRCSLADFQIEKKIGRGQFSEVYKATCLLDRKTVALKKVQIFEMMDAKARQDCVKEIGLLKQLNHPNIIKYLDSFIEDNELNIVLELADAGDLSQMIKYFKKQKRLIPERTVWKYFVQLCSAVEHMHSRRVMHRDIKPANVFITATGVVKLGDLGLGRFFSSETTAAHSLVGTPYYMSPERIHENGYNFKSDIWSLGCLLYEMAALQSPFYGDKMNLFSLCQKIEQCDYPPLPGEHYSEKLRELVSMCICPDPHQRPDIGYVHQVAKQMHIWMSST
compound,measurement,setting,value
Cc1ccc(-c2ccc3c(ccc4sc5c(c43)NC[C@@H](C)NC5=O)n2)cn1,residual activity,MAPKAPK3 (human); compound 0.1 µM,114%
same,residual activity,MAPKAPK3 (human); compound 1.0 µM,62%
same,residual activity,MAPKAPK3 (human); compound 10.0 µM,30%
same,residual activity,MKNK2 (human); compound 0.1 µM,111%
same,residual activity,MKNK2 (human); compound 10.0 µM,26%
same,residual activity,NEK2 (human); compound 0.1 µM,108%
same,residual activity,NEK2 (human); compound 1.0 µM,99%
same,residual activity,NEK2 (human); compound 10.0 µM,88%
same,residual activity,NEK6 (human); compound 0.1 µM,109%
same,residual activity,NEK6 (human); compound 1.0 µM,96%
same,residual activity,NEK6 (human); compound 10.0 µM,66%
same,residual activity,PAK7 (human); compound 0.1 µM,108%
same,residual activity,PAK7 (human); compound 1.0 µM,101%
same,residual activity,PAK7 (human); compound 10.0 µM,101%
same,residual activity,PIM2 (human); compound 0.1 µM,103%
same,residual activity,PIM2 (human); compound 1.0 µM,103%
same,residual activity,PIM2 (human); compound 10.0 µM,66%
same,residual activity,PLK1 (human); compound 0.1 µM,102%
same,residual activity,PLK1 (human); compound 1.0 µM,114%
same,residual activity,PLK1 (human); compound 10.0 µM,98%
same,residual activity,PRKAA1 or PRKAA2 (rat); compound 0.1 µM,93%
same,residual activity,PRKAA1 or PRKAA2 (rat); compound 1.0 µM,38%
same,residual activity,PRKAA1 or PRKAA2 (rat); compound 10.0 µM,9%
same,residual activity,PRKACA (human); compound 0.1 µM,109%
same,residual activity,PRKACA (human); compound 1.0 µM,119%
same,residual activity,PRKACA (human); compound 10.0 µM,108%
same,residual activity,RIPK2 (human); compound 0.1 µM,93%
same,residual activity,RIPK2 (human); compound 10.0 µM,39%
same,residual activity,RPS6KA1 KD1 KD2 (human); compound 0.1 µM,106%
same,residual activity,RPS6KA1 KD1 KD2 (human); compound 1.0 µM,100%
same,residual activity,RPS6KA1 KD1 KD2 (human); compound 10.0 µM,76%
same,residual activity,RPS6KA3 KD1 KD2 (human); compound 0.1 µM,104%
same,residual activity,RPS6KA3 KD1 KD2 (human); compound 1.0 µM,79%
same,residual activity,RPS6KA3 KD1 KD2 (human); compound 10.0 µM,50%
same,residual activity,RPS6KA5 KD1 KD2 (human); compound 0.1 µM,120%
same,residual activity,RPS6KA5 KD1 KD2 (human); compound 1.0 µM,105%
same,residual activity,RPS6KA5 KD1 KD2 (human); compound 10.0 µM,99%
same,residual activity,[1]; compound 0.1 µM,99%
same,residual activity,[1]; compound 1.0 µM,95%
same,residual activity,[1]; compound 10.0 µM,80%
same,residual activity,SRC (human); compound 0.1 µM,110%
same,residual activity,SRC (human); compound 1.0 µM,116%
same,residual activity,SRC (human); compound 10.0 µM,100%
same,residual activity,SYK (human); compound 0.1 µM,94%
same,residual activity,SYK (human); compound 10.0 µM,82%
same,residual activity,TTK (human); compound 0.1 µM,117%
same,residual activity,TTK (human); compound 1.0 µM,101%
same,residual activity,TTK (human); compound 10.0 µM,84%
